Assay results reported in patent US20090078651A1, “Mung Water Treatment Method” (ReNew Systems, Inc., priority 2007, published 2009).

Experiments:
[1] = designed property; cited from earlier work
[2] = test system: bacteria colonies from mung water; assay: Most probable number plates of treated mung water samples (bacteria colony counts); type: cell-based; settings: for colonies counted, Most Probable Number Plates: T = 24
Experimental: On 27 Sep. 2006 an experimental was conducted to compare the effects of treating mung water with DBNPA only to the effects of treating mung water with both DBNPA and Odor-Out®. The experiment was set-up in 250 ml baffled shake flasks with dispo plugs. The Odor Out® solutions used in this experiment were “aged”, having been prepared on 12 Sep. 2006 in tap water. The DBNPA solution was made up just prior to making additions to the flasks and was made using distilled water. After mung water samples and DBNPA and Odor Out® treatment additives were added, the flasks were placed in an incubation shaker set at 30 degrees C. and shaken at 100 rpm. The experiment was started at 2:30 p.m. on 27 Sep. 2006. The flasks were shaken for 2½ hours at which point the shaker was turned off and the flasks were allowed to incubate in a stationary position overnight. The next day, on 28 Sep. 2006 from 11 a.m.-2 p.m., serial dilutions were made up and most probable number plates were prepared. The plates were incubated overnight at 30 degrees C. On 29 Sep.

N#CC(Br)(Br)C(N)=O [DBNPA, 2.2-dibromo-3-nitrilopropionamide]
time to biodegrade after introduction into a recirculating water system [1]: ≤ 48 h
colonies counted, Most Probable Number Plates ([2]; Straight, DBNPA 0.05% 10 μl in 50 ml mung water, no Odor Out (1a)): TNC (the colonies on the plates were too numerous to count (>300))
colonies counted, Most Probable Number Plates ([2]; dilution 10^−1, DBNPA 0.05% 10 μl in 50 ml mung water, no Odor Out (1a)): TNC (the colonies on the plates were too numerous to count (>300))
colonies counted, Most Probable Number Plates ([2]; dilution 10^−2, DBNPA only (1a)): 5
colonies counted, Most Probable Number Plates ([2]; dilution 10^−3, DBNPA only (1a)): 1
colonies counted, Most Probable Number Plates ([2]; dilution 10^−4, DBNPA only (1a)): 0
colonies counted, Most Probable Number Plates ([2]; dilution 10^−5, DBNPA only (1a)): 0
colonies counted, Most Probable Number Plates ([2]; dilution 10^−6, DBNPA only (1a)): 0
colonies counted, Most Probable Number Plates ([2]; dilution 10^−7, DBNPA only (1a)): 0
bacteria colony counts, change ([2]; mung water samples treated only with DBNPA): moderate reductions
